According to EP3282019A1, “[…] TREATMENT OF CANCER, IN […] L[…]” (priority 2016, dated 2018):

Assays:
[1] = tested on: NOTCH2 (N2^IC / Mastermind / CSL) transcription factor complex; experiment: EMSA of DNA-bound NOTCH2 complexes in nuclear extracts of CLL cells; assay type: cell-based, human
Method: Preparation of nuclear extracts and EMSA: 3x10^7 cells were lysed in 1ml hypotonic buffer (10mM HEPES, pH 7.9; 1.5mM MgCl2; 10mM KCL) containing 0.15% NP-40 at 4°C for 10 min. The nuclear proteins were extracted from the nuclear fraction by resuspending the nuclei in 100µl extraction buffer (300mM KCl; 1.5mM MgCl2; 20mM HEPES pH 7.9; 0.2mM EDTA; 25% Glycerin) at 4°C for 20 min with constant agitation. The CSL site spanning EMSA probe was derived from the CD23a promoter (5'-[…]-3' (SEQ ID NO: 40) annealed with the reverse complementary strand). The N1^IC (bTAN 20) and N2^IC (C651.6DbHN) antibodies was obtained from the Developmental Studies Hybridoma Bank (University of Iowa, Department of Biological Science, Iowa City, IA). EMSA was performed essentially as described (Hubmann et al., 2010)

[2] = tested on: NOTCH and apoptosis related genes; experiment: semiquantitative RT-PCR of NOTCH and apoptosis related genes in CLL cells; assay type: cell-based, human; settings: for NOTCH3 expression / NR4A1 expression: Fig 3A, right panel
Description: PCR, RT-PCR, and Western blot analysis: Total RNA was extracted using the Trizol isolation system (Invitrogen/Life Technologies, Paisley, UK). Genomic DNA (gDNA) was extracted using the Wizard Genomic DNA extraction kit from Promega. M-MLV reverse transcriptase and GoTaq PCR kits (Promega, WI, USA) were used for semiquantitative reverse transcriptase polymerase chain reactions (RT-PCR).
PCR and RT-PCR techniques (long range PCR using genomic DNA, semiquantitative RT-PCR), and western blotting (Modular Mini-Protean II system from Bio Rad) were used routinely according to standard protocols.

[3] = tested on: CLL cells; experiment: ex vivo CLL microenvironment model (co-culture with primary human bone marrow stromal cells)
[4] = tested on: CLL cells; experiment: FACS detection of apoptosis (AnnexinV / propidium iodide) in CLL cells, PMA activation model; assay type: cell-based, human
Method: Cell lines and culture: CLL cells were cultured in RPMI 1640 medium containing 10% fetal calf serum, 100U/ml penicillin and […] streptomycin at 37 °C, 7.5% CO2 in humidified atmosphere. The ex vivo CLL microenvironment model based on using primary human bone marrow stromal cells in co-culture with CLL cells was applied as previously described and was used for analysing the effect of gliotoxin, RO4929097, and blocking antibodies on CLL cells in a milieu resembling the situation in vivo (Shehata et al., 2004). The PMA activation model was used to analyse the function of PKC stimulation on the regulation of NOTCH2/NOTCH3 signalling in CLL cells.
Flow cytometry (FACS) and detection of cell viability: Antibodies (CD5, CD19, CD20, CD23, CD49d, CD37, CD52, and 7-Aminoactinomycin D (7-AAD) were purchased from Becton Dickinson (San Jose, CA). Species- and isotype-matched irrelevant antibodies are used as controls. Flow cytometry was performed on a FACScan® using CellQuest Pro software version 5.2.1 (Becton Dickinson, San Jose, CA). Ultra high speed cell sorting was used to isolate CD5+/CD19+ CLL cells from normal B-cells (CD19+/CD5-) and T-cells (CD3+). AnnexinV, propidium iodide, and 7-AAD staining was performed to estimate the percentages of cells undergoing apoptosis. The overall effect on cell viability was calculated as the sum of early apoptotic (AnnexinV single positive; Ax+/PI-) and late apoptotic/necrotic (AnnexinV/propidium iodide double positive; Ax+/PI+) cells using a kit from Bender Med. Systems Inc. (Vienna, AT). Cell viability was evaluated by a nonisotopic MTT (3-(4,5-dimethylthiazolyl-2)-2,5-diphenyltetrazolium bromide) assay (Ez4U) in 96-well culture plates as described by the manufacturer (Biomedica, AT).

[5] = chronic stimulation with PMA, after 3 days, CLL cells
[6] = RO4929097 0.5µM, PMA-activated CLL cells expressing a GSI resistant form of nuclear NOTCH2

## C[C@H](NC(=O)Cc1cc(F)cc(F)c1)C(=O)N[C@H](C(=O)OC(C)(C)C)c1ccccc1 [DAPT]
[1]; 5µM DAPT, majority of CLL cases, Fig. 1A and B
  nuclear NOTCH2 activity: no effect
[1]; majority of CLL cases, Fig. 2B
  sensitivity of DNA-bound NOTCH2 complexes to GSI: less sensitive/resistant

## CCCCCCCCCCCCCC(=O)O[C@@H]1[C@@H](C)[C@@]2(O)[C@@H](C=C(CO)C[C@]3(O)C(=O)C(C)=C[C@@H]23)[C@@H]2C(C)(C)[C@]12OC(C)=O [PMA]
[2]; PMA-activated CLL cells, Fig 2C, lane 4
  expression of all NOTCH ligands: downregulation
[2]; [5]
  NOTCH3 expression: upregulation
  NR4A1 expression: upregulation

## CN1C(=O)[C@]23CC4=CC=C[C@H](O)[C@H]4N2C(=O)[C@@]1(CO)SS3 [gliotoxin]
[2]
  NOTCH2 signalling: rapidly inhibited
  NOTCH3 mRNA expression: upregulated
  NR4A1 mRNA expression: upregulated
  co-expression of NOTCH3 and its ligand JAG2 (unstimulated cells) or DLL1 (PMA activated cells): induced co-expression
[1]
  NOTCH2 at the transcription factor level: inhibits NOTCH2 at the transcription factor level
  NOTCH2 transactivation: potent NOTCH2 transactivation inhibitor
  assembly of the ternary NOTCH2 (N2^IC / Mastermind / CSL) transcription factor complex on DNA: interferes with the assembly
[3]
  anti-apoptotic effect of bone marrow stromal cells: could also overcome the anti-apoptotic effect
[4]
  apoptosis in CLL cells: efficiently induced apoptosis
  protective effect of PMA on CLL cells: reversed the protective effect of PMA

## CC(C)(C(=O)NCC(F)(F)C(F)(F)F)C(=O)N[C@@H]1C(=O)Nc2ccccc2-c2ccccc21 [RO4929097]
[2]; [6]
  NOTCH3 expression: inhibits
  NR4A1 expression: inhibits
[4]; RO4929097 0.5µM with gliotoxin 0.2µM, PMA-activated CLL cells expressing a GSI resistant form of nuclear NOTCH2, Fig 3B
  gliotoxin mediated apoptosis: counteracts
[4]; RO4929097 0.5µM, PMA-activated CLL cells expressing a GSI resistant form of nuclear NOTCH2, Fig 3B
  spontaneous apoptosis: counteracts
